Experimental findings from patent US4965365A, “Imidazole derivatives and a process for the preparation thereof” (Laboratorios Vinas, S.A., priority 1988, dated 1990) are described below.

For test [1], the system named is ethanol induced ulcers. The conditions noted are these: equimolecular doses. The procedure:
(B) Necrotic agent model.
The activity of this compound vs cimetidine at equimolecular doses and a control group administered a vehicle was tested using the necrotic agent model, in this case ethanol, described by A. Robert et al. (Gastroenterology, 77: 433, 1979).

Test [2] has as its system histamine induced gastric acid secretion. The conditions noted are these: 15 mg/kg, i.p., rat, intragastric pH. The method, then:
(A) histamine induced gastric acid secretion model "in vivo" in the rat.
This activity was measured in Wistar rats of 240±20 g body weight. An endovenous perfusion of a histamine solution stimulated the gastric acid secretion, causing a drop in the intragastric pH. Thereafter, this compound was administered i.p. and the increase in gastric pH caused was evaluated.

Turning to `CNC(=NC#N)NCCSCc1nc[nH]c1C` [Cimetidine, cimetidine], in test [1] (ethanol model), the “% inhibition of ulcers vs the control” value is listed as 30.3%. The “mm damaged (lesion index, mm of ulcer)” value in test [1] (mean ± standard error of the mean, control 91.4 ± 8.1, a: t test p< 0.05 vs control) is on record as 63.7 ± 7.7 mm.
In the case of `CN=C(NC#N)NCCSCc1nc[nH]c1C.[Cl][Zn][Cl]` [Zn(cimetidine)Cl2], in test [2], the “pH Recovery” value was determined as 65.5%.
